The source of these data is patent US8114880B2, “Piperidine or piperazine substituted tetrahydro-naphthalene-1-carboxylic acid MTP inhibiting compounds” (Janssen Pharmaceutica N.V., priority 2006, dated 2012).

Usually IC50 stands for the concentration needed to halve the response being measured. Read a low IC50 as inhibition by little substance.

Chain of MTP (P55157 19-894, species assumed): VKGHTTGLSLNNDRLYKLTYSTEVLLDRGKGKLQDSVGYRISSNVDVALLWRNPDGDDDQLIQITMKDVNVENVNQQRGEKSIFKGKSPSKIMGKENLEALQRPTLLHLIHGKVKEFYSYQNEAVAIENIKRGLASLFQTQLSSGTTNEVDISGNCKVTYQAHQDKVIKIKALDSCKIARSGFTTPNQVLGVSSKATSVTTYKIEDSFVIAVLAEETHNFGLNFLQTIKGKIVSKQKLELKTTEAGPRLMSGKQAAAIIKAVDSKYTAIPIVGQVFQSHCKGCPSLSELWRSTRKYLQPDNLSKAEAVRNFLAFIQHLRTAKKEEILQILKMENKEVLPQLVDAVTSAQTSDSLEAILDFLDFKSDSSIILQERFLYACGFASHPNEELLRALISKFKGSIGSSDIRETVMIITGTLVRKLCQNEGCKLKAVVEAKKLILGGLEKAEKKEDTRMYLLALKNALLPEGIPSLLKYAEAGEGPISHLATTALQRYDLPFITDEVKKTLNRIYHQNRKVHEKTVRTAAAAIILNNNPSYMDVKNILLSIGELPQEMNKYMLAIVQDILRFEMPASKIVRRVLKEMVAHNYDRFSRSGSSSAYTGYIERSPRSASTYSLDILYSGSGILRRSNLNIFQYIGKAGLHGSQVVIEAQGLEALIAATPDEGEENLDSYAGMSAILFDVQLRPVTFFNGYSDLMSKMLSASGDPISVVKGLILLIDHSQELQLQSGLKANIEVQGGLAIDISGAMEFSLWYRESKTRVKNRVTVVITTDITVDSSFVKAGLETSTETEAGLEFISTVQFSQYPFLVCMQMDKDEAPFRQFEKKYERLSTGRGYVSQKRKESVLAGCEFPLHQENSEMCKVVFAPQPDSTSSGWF
Chain of MTP (P07237 18-508 partner, species assumed): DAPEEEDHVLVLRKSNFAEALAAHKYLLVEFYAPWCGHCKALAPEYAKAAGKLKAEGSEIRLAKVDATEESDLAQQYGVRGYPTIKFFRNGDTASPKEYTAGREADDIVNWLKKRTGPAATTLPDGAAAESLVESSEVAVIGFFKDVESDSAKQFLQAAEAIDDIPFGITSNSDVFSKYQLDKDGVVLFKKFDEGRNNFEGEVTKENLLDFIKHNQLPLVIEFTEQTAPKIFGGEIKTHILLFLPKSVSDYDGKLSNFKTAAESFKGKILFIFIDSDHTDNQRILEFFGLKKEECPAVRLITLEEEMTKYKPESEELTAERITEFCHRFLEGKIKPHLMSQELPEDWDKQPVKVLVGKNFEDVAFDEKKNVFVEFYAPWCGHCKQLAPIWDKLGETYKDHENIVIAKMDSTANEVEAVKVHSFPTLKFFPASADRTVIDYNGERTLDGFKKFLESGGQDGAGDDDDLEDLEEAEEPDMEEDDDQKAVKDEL

The first experiment has as its target MTP (Homo sapiens, UniProt P55157). The experiment is described as follows: MTP assay (triglyceride transfer from donor to acceptor vesicles). In kind it is biochemical. The conditions noted are these: MTP activity, percent triglyceride transfer from donor to acceptor vesicles, 37° C. How it is done:
MTP activity was measured using an assay similar to one described by J. R. Wetterau and D. B. Zilversmit in Chemistry and Physics of Lipids, 38, 205-222 (1985). To prepare the donor and acceptor vesicles, the appropriate lipids in chloroform were put into a glass test tube and dried under a stream of nitrogen. A buffer containing 15 mM Tris-HCl pH 7.5, 1 mM EDTA, 40 mM NaCl, 0.02% NaN3 (assay buffer) was added to the dried lipid. The mixture was vortexed briefly and the lipids were then allowed to hydrate for 20 minutes on ice. Vesicles were then prepared by bath sonication (Branson 2200) at room temperature for maximum 15 minutes. Butylated hydroxytoluene was included in all vesicle preparations at a concentration of 0.1%. The lipid transfer assay mixture contained donor vesicles (40 nmol phosphatidylcholine, 7.5 mol % of cardiolipin and 0.25 mol % glycerol tri [1-^14C]-oleate), acceptor vesicles (240 nmol phosphatidylcholine) and 5 mg BSA in a total volume of 675 μl in a 1.5 ml microcentrifuge tube. Test compounds were added dissolved in DMSO (0.13% final concentration). After 5 minutes of pre-incubation at 37° C., the reaction was started by the addition of MTP in 100 μl dialysis buffer. The reaction was stopped by the addition of 400 μl DEAE-52 cellulose pre-equilibrated in 15 mM Tris-HCl pH 7.5, 1 mM EDTA, 0.02% NaN3 (1:1, vol/vol). The mixture was agitated for 4 minutes and centrifuged for 2 minutes at maximum speed in an Eppendorf centrifuge (4° C.) to pellet the DEAE-52-bound donor vesicles. An aliquot of the supernatant containing the acceptor liposomes was counted and the [^14C]-counts were used to calculate the percent triglyceride transfer from donor to acceptor vesicles.
`Cn1cccc(C(=O)NC2CCN(C(=O)[C@H]3CC[C@@](C(=O)N[C@@H](Cc4ccccc4)C(=O)OC(C)(C)C)(c4ccccc4)c4ccccc43)CC2)c1=O` [Co. No. 178] gave an IC50 of 1490 nM.
Same read-out and setting: the same measure for `Cn1cccc(C(=O)NC2CCN(C(=O)[C@H]3CC[C@@](C(=O)N[C@H](Cc4ccccc4)C(=O)OC(C)(C)C)(c4ccccc4)c4ccccc43)CC2)c1=O` [Co. No. 179]: 1320 nM.
Same read-out and setting: next, `Cn1cccc(C(=O)NC2CCN(C(=O)[C@H]3CC[C@@](C(=O)N[C@@H](Cc4ccc(O)cc4)C(=O)OC(C)(C)C)(c4ccccc4)c4ccccc43)CC2)c1=O` [Co. No. 180]: 2670 nM; `Cn1cccc(C(=O)NC2CCN(C(=O)[C@H]3CC[C@@](C(=O)N[C@@H](CC(N)=O)C(=O)OC(C)(C)C)(c4ccccc4)c4ccccc43)CC2)c1=O` [Co. No. 181]: more than 10000 nM.
`Cn1cccc(C(=O)NC2CCN(C(=O)[C@H]3CC[C@@](C(=O)NCC(=O)O)(c4ccccc4)c4ccccc43)CC2)c1=O` [Co. No. 182] had an IC50 of more than 10000 nM.
Still for that read-out and setting: the same measure for `C[C@H](NC(=O)[C@@]1(c2ccccc2)CC[C@H](C(=O)N2CCC(NC(=O)c3cccn(C)c3=O)CC2)c2ccccc21)C(=O)O` [Co. No. 183]: more than 10000 nM; for `C[C@@H](NC(=O)[C@@]1(c2ccccc2)CC[C@H](C(=O)N2CCC(NC(=O)c3cccn(C)c3=O)CC2)c2ccccc21)C(=O)O` [Co. No. 184]: more than 10000 nM; for `CN(CC(=O)O)C(=O)[C@@]1(c2ccccc2)CC[C@H](C(=O)N2CCC(NC(=O)c3cccn(C)c3=O)CC2)c2ccccc21` [Co. No. 185]: more than 10000 nM.
Molecule `Cn1cccc(C(=O)NC2CCN(C(=O)[C@H]3CC[C@@](C(=O)NCCC(=O)O)(c4ccccc4)c4ccccc43)CC2)c1=O` [Co. No. 186] showed a half-inhibitory concentration (IC50) of more than 10000 nM.
`CC(C)[C@H](NC(=O)[C@@]1(c2ccccc2)CC[C@H](C(=O)N2CCC(NC(=O)c3cccn(C)c3=O)CC2)c2ccccc21)C(=O)O` [Co. No. 187] showed an IC50 of more than 10000 nM.
As for `CC(C)[C@@H](NC(=O)[C@@]1(c2ccccc2)CC[C@H](C(=O)N2CCC(NC(=O)c3cccn(C)c3=O)CC2)c2ccccc21)C(=O)O` [Co. No. 188], the IC50 was more than 10000 nM.
The same measure, in the same setting: next, `CC(C)C[C@H](NC(=O)[C@@]1(c2ccccc2)CC[C@H](C(=O)N2CCC(NC(=O)c3cccn(C)c3=O)CC2)c2ccccc21)C(=O)O` [Co. No. 189]: more than 10000 nM; `Cn1cccc(C(=O)NC2CCN(C(=O)[C@H]3CC[C@@](C(=O)NC(CCCCN)C(=O)O)(c4ccccc4)c4ccccc43)CC2)c1=O` (stereo partly drawn) [Co. No. 190]: more than 10000 nM.
The same measure, in the same setting: the same measure for `Cn1cccc(C(=O)NC2CCN(C(=O)[C@H]3CC[C@@](C(=O)N4CCC[C@@H]4C(=O)O)(c4ccccc4)c4ccccc43)CC2)c1=O` [Co. No. 191]: more than 10000 nM.
Turning to `Cn1cccc(C(=O)NC2CCN(C(=O)[C@H]3CC[C@@](C(=O)N4C[C@H](O)C[C@H]4C(=O)O)(c4ccccc4)c4ccccc43)CC2)c1=O` [Co. No. 192], the IC50 was more than 10000 nM.
Still for that read-out and setting: next, `Cn1cccc(C(=O)NC2CCN(C(=O)[C@H]3CC[C@@](C(=O)N[C@@H](C(=O)O)c4ccccc4)(c4ccccc4)c4ccccc43)CC2)c1=O` [Co. No. 193]: more than 10000 nM; `Cn1cccc(C(=O)NC2CCN(C(=O)[C@H]3CC[C@@](C(=O)N[C@H](C(=O)O)c4ccccc4)(c4ccccc4)c4ccccc43)CC2)c1=O` [Co. No. 194]: more than 10000 nM.
For the molecule `Cn1cccc(C(=O)NC2CCN(C(=O)[C@H]3CC[C@@](C(=O)N[C@@H](Cc4ccccc4)C(=O)O)(c4ccccc4)c4ccccc43)CC2)c1=O` [Co. No. 195], the half-maximal inhibitory concentration (IC50) is more than 10000 nM.
Same read-out and setting: next, `Cn1cccc(C(=O)NC2CCN(C(=O)[C@H]3CC[C@@](C(=O)N[C@H](Cc4ccccc4)C(=O)O)(c4ccccc4)c4ccccc43)CC2)c1=O` [Co. No. 196]: more than 10000 nM; `Cn1cccc(C(=O)NC2CCN(C(=O)[C@H]3CC[C@@](C(=O)N[C@@H](Cc4ccc(O)cc4)C(=O)O)(c4ccccc4)c4ccccc43)CC2)c1=O` [Co. No. 197]: more than 10000 nM.
On the same count and under the same terms, next, `Cn1cccc(C(=O)NC2CCN(C(=O)[C@H]3CC[C@@](C(=O)N[C@@H](CC(N)=O)C(=O)O)(c4ccccc4)c4ccccc43)CC2)c1=O` [Co. No. 198]: more than 10000 nM; `COC(=O)CCCNC(=O)[C@@]1(c2ccccc2)CC[C@H](C(=O)N2CCC(NC(=O)c3cccn(C)c3=O)CC2)c2ccccc21` [Co. No. 224]: 1140 nM.
Same read-out and setting: the same measure for `CC(C)OC(=O)CCCCNC(=O)[C@@]1(c2ccccc2)CC[C@H](C(=O)N2CCC(NC(=O)c3cccn(C)c3=O)CC2)c2ccccc21` [Co. No. 227]: 228 nM.
Molecule `COC(=O)CCCCCNC(=O)[C@@]1(c2ccccc2)CC[C@H](C(=O)N2CCC(NC(=O)c3cccn(C)c3=O)CC2)c2ccccc21` [Co. No. 228] gave an IC50 of 307 nM.
The same measure, in the same setting: next, `Cn1cccc(C(=O)NC2CCN(C(=O)[C@H]3CC[C@@](C(=O)NCCCCCC(=O)OC(C)(C)C)(c4ccccc4)c4ccccc43)CC2)c1=O` [Co. No. 230]: 170 nM; `CCOC(=O)NCCCC[C@H](CC(=O)[C@@]1(c2ccccc2)CC[C@H](C(=O)N2CCC(NC(=O)c3cccn(C)c3=O)CC2)c2ccccc21)C(=O)OCC` [Co. No. 232]: 3330 nM; `CCOC(=O)[C@H](CCCCNC(=O)OC(C)C)NC(=O)[C@@]1(c2ccccc2)CC[C@H](C(=O)N2CCC(NC(=O)c3cccn(C)c3=O)CC2)c2ccccc21` [Co. No. 234]: more than 10000 nM.
On the same count and under the same terms, next, `COC(=O)[C@H](CCCCNC(=O)[C@@]1(c2ccccc2)CC[C@H](C(=O)N2CCC(NC(=O)c3cccn(C)c3=O)CC2)c2ccccc21)NC(C)=O` [Co. No. 236]: 2670 nM.
Still for that read-out and setting: next, `COC(=O)[C@@H](CCCCNC(=O)OC(C)(C)C)NC(=O)[C@@]1(c2ccccc2)CC[C@H](C(=O)N2CCC(NC(=O)c3cccn(C)c3=O)CC2)c2ccccc21` [Co. No. 237]: 234 nM; `CCOC(=O)NCCCC[C@@H](NC(=O)[C@@]1(c2ccccc2)CC[C@H](C(=O)N2CCC(NC(=O)c3cccn(C)c3=O)CC2)c2ccccc21)C(=O)OC` [Co. No. 238]: 2330 nM; `CCOC(=O)NCCCC[C@@H](NC(=O)[C@@]1(c2ccccc2)CC[C@H](C(=O)N2CCC(NC(=O)c3cccn(C)c3=O)CC2)c2ccccc21)C(=O)OCC` [Co. No. 239]: 643 nM.
As for `COC(=O)[C@@H](CCCCNC(=O)OC(C)C)NC(=O)[C@@]1(c2ccccc2)CC[C@H](C(=O)N2CCC(NC(=O)c3cccn(C)c3=O)CC2)c2ccccc21` [Co. No. 240], the half-maximal inhibitory concentration (IC50) is 286 nM.
`CCOC(=O)[C@@H](CCCCNC(=O)OC(C)C)NC(=O)[C@@]1(c2ccccc2)CC[C@H](C(=O)N2CCC(NC(=O)c3cccn(C)c3=O)CC2)c2ccccc21` [Co. No. 241]: the 50% inhibitory concentration (IC50) was 243 nM. This IC50 and that of the molecule before are within 1.5-fold of each other.
On the same count and under the same terms, next, `CC(C)OC(=O)NCCCC[C@@H](NC(=O)[C@@]1(c2ccccc2)CC[C@H](C(=O)N2CCC(NC(=O)c3cccn(C)c3=O)CC2)c2ccccc21)C(=O)OC(C)C` [Co. No. 242]: 2360 nM; `CCOC(=O)[C@]1(c2ccccc2)CC[C@@H](C(=O)N2CCN(CC(=O)c3ccccc3OC)CC2)c2ccccc21` [Co. No. 259]: 63.1 nM; `CCOC(=O)[C@]1(c2ccccc2)CC[C@@H](C(=O)N2CCC(NC(=O)c3ccccc3N3CCN(C)CC3)CC2)c2ccccc21` [Co. No. 268]: 14.5 nM.
Still for that read-out and setting: the same measure for `C=CCOC(=O)[C@@]1(c2ccccc2)CC[C@H](C(=O)N2CCC(NC(=O)c3ccccc3N3CCN(C)CC3)CC2)c2ccccc21` [Co. No. 269]: 8.45 nM; for `CCOC(=O)[C@]1(c2ccccc2)CC[C@@H](C(=O)N2CCC(N(C)C(=O)c3ccccc3OC)CC2)c2ccccc21` [Co. No. 270]: 14.1 nM.
Same read-out and setting: the same measure for `CCOC(=O)[C@]1(c2cccc(F)c2)CC[C@@H](C(=O)N2CCC(NC(=O)c3ccccc3OC)CC2)c2cc(F)ccc21` [Co. No. 271]: 2.94 nM.

Another experiment deals with HepG2 cells. The experiment is described as follows: Quantification of the secretion of ApoB. In kind it is cell-based. The conditions noted are these: Homo sapiens, HepG2, 24 h, 24 hours of incubation, pIC50 = -log IC50. How it is done:
HepG2 cells were cultured in 24-well plates in MEM Rega 3 containing 10% fetal calf serum. At 70% confluency, the medium was changed and the test compound or carrier (DMSO, 0.4% final concentration) was added. After 24 hours of incubation, the medium was transferred to Eppendorf tubes and cleared by centrifugation. A sheep antibody directed against either apoB was added to the supernatant and the mixture was kept at 8° C. for 24 hours. Then, rabbit anti-sheep antibody was added and the immune complex was allowed to precipitate for 24 hours at 8° C. The immunoprecipitate was pelleted by centrifugation for 25 minutes at 1320 g and washed twice with a buffer containing 40 mM Mops, 40 mM NaH2PO4, 100 mM NaF, 0.2 mM DTT, 5 mM EDTA, 5 mM EGTA, 1% Triton-X-100, 0.5% sodium deoxycholate (DOC), 0.1% SDS, 0.2 μM leupeptin and 0.2 μM PMSF. Radioactivity in the pellet was quantified by liquid scintillation counting. The IC50 values are usually converted to pIC50 values (=−log IC50 value) for ease of use.
As to `O=C(NC1CCN(CC2CCC(C(=O)NCc3ccccc3)(c3ccccc3)c3ccccc32)CC1)c1ccccc1` (stereo not drawn) [Co. No. 1], it took 1840 nM to reach half-maximal inhibition (IC50). In other words, the single-digit micromolar range.
The same measure, in the same setting: the same measure for `O=C(NC1CCN(C(=O)C2CCC(C(=O)Nc3ccccc3)(c3ccccc3)c3ccccc32)CC1)c1ccccc1` (stereo not drawn) [Co. No. 2]: 74.5 nM; for `CCCNC(=O)C1(c2ccccc2)CCC(CN2CCC(NC(=O)c3ccccc3)CC2)c2ccccc21` (stereo not drawn) [Co. No. 5]: 1910 nM.
